According to US6579469B1, “Cyanoacrylate solutions containing preservatives” (priority 1999, dated 2003):

Assay: Compatibility of antimicrobial agent with sterilization procedures
Type: physicochemical
Details: comparison of Tables II and III
Description: Optionally, in embodiments of the present invention, the potential agent can be tested for its compatibility with one or more sterilization procedures. This optional screening procedure can also be performed by mixing an appropriate amount of the agent with a desired amount of the monomer composition and any other desired additives, and then subjecting the resultant composition to one or more sterilization procedures. Compatibility of the agent with one or more sterilization procedures is preferred in embodiments of the present invention because many uses of the polymerizable monomer compositions, such as many medical applications, require or prefer sterilized products. Following sterilization, the agent can exert antimicrobial action in killing or preventing growth of microbes that may be introduced into the pre-sterilized monomer compositions.

For Cc1ccc(C(C)C)c(O)c1 [thymol], the “Compatibility with forms of sterilization” value was “more compatible with one form of sterilization than it is with another form of sterilization”.
